Assay results as given in patent publication US8536209B2, “Aminotriazole derivatives as ALX agonists” (Actelion Pharmaceuticals Ltd., priority 2007, dated 2013).

Molecular target: T1, recombinant human ALX receptor (Homo sapiens, UniProt P25090)
T1 construct: expressed in transfected cells; host or cells: HEK293 (HEK293-hALXR-Gα16)
T1 sequence (P25090 1-351): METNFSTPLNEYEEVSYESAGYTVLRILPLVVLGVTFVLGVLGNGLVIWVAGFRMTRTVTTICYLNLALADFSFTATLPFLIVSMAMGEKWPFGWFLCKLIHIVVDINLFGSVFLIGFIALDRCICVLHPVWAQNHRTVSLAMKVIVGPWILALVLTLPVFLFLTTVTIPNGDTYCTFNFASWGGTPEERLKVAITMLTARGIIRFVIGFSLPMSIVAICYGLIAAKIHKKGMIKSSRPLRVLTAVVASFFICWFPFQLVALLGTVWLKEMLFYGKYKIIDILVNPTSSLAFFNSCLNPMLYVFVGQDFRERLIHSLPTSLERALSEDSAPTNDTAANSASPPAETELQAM
Experiment: Intracellular calcium measurements (FLIPR), ALX receptor agonistic activity
Type: cell-based
Conditions: HEK293-hALXR-Gα16 cells, normalized to WKYMVm 10 nM
Experimental: The ALX receptor agonistic activity of the compounds of formula (I) is determined in accordance with the following experimental method.
Intracellular Calcium Measurements:
Cells expressing recombinant human ALX receptor and the G-protein Gα16 (HEK293-hALXR-Gα16) were grown to 80% confluency in Growing Medium (GM). Cells were detached from culture dishes with a cell dissociation buffer (Invitrogen, 13151-014), and collected by centrifugation at 1,000 rpm at RT for 5 min in Assay Buffer (AB) (equal parts of Hank's BSS (Gibco, 14065-049) and DMEM without Phemol Red (Gibco, 11880-028)). After 60 min incubation at 37° C. under 5% CO2 in AB supplemented with 1 μM Fluo-4 (AM) (TEFLABS.COM, 0152), 0.04% (v/v) Pluronic F-127 (Molecular Probes, P6866), and 20 mM HEPES (Gibco, 15630-056), the cells were washed and resuspended in AB. They were then seeded onto 384-well FLIPR assay plates (Greiner, 781091) at 50′000 cells in 70 μl per well and sedimented by centrifugation at 1′000 rpm for 1 min. Stock solutions of test compounds were made up at a concentration of 10 mM in DMSO, and serially diluted in AB to concentrations required for activation dose response curves. WKYMVm (Phoenix Peptides) was used as a reference agonist. A FLIPR^384 instrument (Molecular Devices) was operated according to the manufacturer's standard instructions, adding 4 μl of test compound dissolved at 10 mM in DMSO and diluted prior to the experiment in assay buffer to obtain the desired final concentration. Changes in fluorescence were monitored before and after the addition of test compounds at lex=488 nm and lem=540 nm. Emission peak values above base level after compounds addition were exported after base line subtraction. Values were normalized to high-level control (WKYMVm compound, 10 nM final concentration) after subtraction of the base line value (AB addition). The program XLlfit 3.0 (IDBS) was used to fit the data to a single site dose response curve of the equation (A+((B−A)/(1+((C/x)^D)))) and to calculate the EC50 values.

EC50 [nM] | SMILES
8.1 | CC(=O)c1ncc(Cn2ncc(NC(=O)c3nc(C)oc3-c3cccc(F)c3)n2)o1 [Example 99, 5-(3-Fluoro-phenyl)-2-methyl-oxazole-4-carboxylic acid [2-(2-acetyl-oxazol-5-ylmethyl)-2H-[1,2,3]triazol-4-yl]-amide]
2 | CC(=O)c1ccc(Cn2ncc(NC(=O)c3nc(C)oc3-c3cccc(C(F)(F)F)c3)n2)o1 [Example 26, 2-Methyl-5-(3-trifluoromethyl-phenyl)-oxazole-4-carboxylic acid [2-(5-acetyl-furan-2-ylmethyl)-2H-[1,2,3]triazol-4-yl]-amide]
1.9 | CC(=O)c1ccc(Cn2ncc(NC(=O)c3ncoc3-c3cccc(N(C)C)c3)n2)o1 [Example 38, 5-(3-Dimethylamino-phenyl)-oxazole-4-carboxylic acid [2-(5-acetyl-furan-2-ylmethyl)-2H-[1,2,3]triazol-4-yl]-amide]
21 | CC(=O)c1ccnc(Cn2ncc(NC(=O)OCc3ccccc3Cl)n2)c1 [Example 41, [2-(4-Acetyl-pyridin-2-ylmethyl)-2H-[1,2,3]triazol-4-yl]-carbamic acid 2-chloro-benzyl ester]
1.8 | CC(=O)c1ccc(Cn2ncc(NC(=O)c3ncoc3-c3ccccc3)n2)o1 [Example 1, 5-Phenyl-oxazole-4-carboxylic acid [2-(5-acetyl-furan-2-ylmethyl)-2H-[1,2,3]triazol-4-yl]-amide]
2.8 | CC(=O)c1ccc(Cn2ncc(NC(=O)c3ncoc3-c3ccccc3)n2)s1 [Example 33, 5-Phenyl-oxazole-4-carboxylic acid [2-(5-acetyl-thiophen-2-ylmethyl)-2H-[1,2,3]triazol-4-yl]-amide]
0.7 | CC(=O)c1coc(Cn2ncc(NC(=O)c3ncoc3-c3ccccc3)n2)n1 [Example 91, 5-Phenyl-oxazole-4-carboxylic acid [2-(4-acetyl-oxazol-2-ylmethyl)-2H-[1,2,3]triazol-4-yl]-amide]
0.8 | CC(=O)c1ccc(Cn2ncc(NC(=O)c3nc(C4CC4)oc3-c3ccccc3)n2)o1 [Example 30, 2-Cyclopropyl-5-phenyl-oxazole-4-carboxylic acid [2-(5-acetyl-furan-2-ylmethyl)-2H-[1,2,3]triazol-4-yl]-amide]
23 | CC(=O)c1cnc(Cn2ncc(NC(=O)OCc3ccccc3Cl)n2)s1 [Example 71, [2-(5-Acetyl-thiazol-2-ylmethyl)-2H-[1,2,3]triazol-4-yl]-carbamic acid 2-chloro-benzyl ester]
203 | CC(=O)c1cccc(Cn2ncc(NC(=O)c3ncoc3-c3ccccc3)n2)n1 [Example 43, 5-Phenyl-oxazole-4-carboxylic acid [2-(6-acetyl-pyridin-2-ylmethyl)-2H-[1,2,3]triazol-4-yl]-amide]
4.9 | CC(F)(F)CCCCn1ncc(NC(=O)c2ncoc2-c2ccccc2)n1 [Example 36, 5-Phenyl-oxazole-4-carboxylic acid [2-(5,5-difluoro-hexyl)-2H-[1,2,3]triazol-4-yl]-amide]
1.2 | CC(=O)c1ccc(Cn2ncc(NC(=O)/C=C/c3cccc(OC(F)(F)F)c3)n2)o1 [Example 8, (E)-N-[2-(5-Acetyl-furan-2-ylmethyl)-2H-[1,2,3]triazol-4-yl]-3-(3-trifluoromethoxy-phenyl)-acrylamide]
5.2 | COCCc1nc(C(=O)Nc2cnn(Cc3ccc(C(C)=O)o3)n2)c(-c2ccccc2)o1 [Example 93, 2-(2-Methoxy-ethyl)-5-phenyl-oxazole-4-carboxylic acid [2-(5-acetyl-furan-2-ylmethyl)-2H-[1,2,3]triazol-4-yl]-amide]
24 | CS(=O)(=O)c1ccc(Cn2ncc(NC(=O)c3ncoc3-c3ccccc3)n2)o1 [Example 37, 5-Phenyl-oxazole-4-carboxylic acid [2-(5-methanesulfonyl-furan-2-ylmethyl)-2H-[1,2,3]triazol-4-yl]-amide]
57 | CC(=O)c1cc(Cn2ncc(NC(=O)c3ncoc3-c3ccccc3)n2)cs1 [Example 49, 5-Phenyl-oxazole-4-carboxylic acid [2-(5-acetyl-thiophen-3-ylmethyl)-2H-[1,2,3]triazol-4-yl]-amide]
36 | CC(=O)c1ccc(Cn2ncc(NC(=O)c3ncoc3-c3cccc(C(F)(F)F)n3)n2)o1 [Example 105, 5-(6-Trifluoromethyl-pyridin-2-yl)-oxazole-4-carboxylic acid [2-(5-acetyl-furan-2-ylmethyl)-2H-[1,2,3]triazol-4-yl]-amide]
8.5 | CC(=O)c1cccc(Cn2ncc(NC(=O)OCc3ccccc3Cl)n2)c1 [Example 35, [2-(3-Acetyl-benzyl)-2H-[1,2,3]triazol-4-yl]-carbamic acid 2-chloro-benzyl ester]
1.6 | CC(=O)CCCCn1ncc(NC(=O)c2ncoc2-c2ccccc2)n1 [Example 5, 5-Phenyl-oxazole-4-carboxylic acid [2-(5-oxo-hexyl)-2H-[1,2,3]triazol-4-yl]-amide]
53 | COc1cc(-c2ocnc2C(=O)Nc2cnn(Cc3ccc(C(C)=O)o3)n2)ccc1C [Example 21, 5-(3-Methoxy-4-methyl-phenyl)-oxazole-4-carboxylic acid [2-(5-acetyl-furan-2-ylmethyl)-2H-[1,2,3]triazol-4-yl]-amide]
1.4 | CC(=O)c1nc(Cn2ncc(NC(=O)OCc3ccccc3Cl)n2)co1 [Example 104, [2-(2-Acetyl-oxazol-4-ylmethyl)-2H-[1,2,3]triazol-4-yl]-carbamic acid 2-chloro-benzyl ester]
1.3 | CC(=O)c1csc(Cn2ncc(NC(=O)OCc3ccccc3Cl)n2)n1 [Example 40, [2-(4-Acetyl-thiazol-2-ylmethyl)-2H-[1,2,3]triazol-4-yl]-carbamic acid 2-chloro-benzyl ester]
2.1 | COCCc1cccc(-c2ocnc2C(=O)Nc2cnn(Cc3ccc(C(C)=O)o3)n2)c1 [Example 42, 5-[3-(2-Methoxy-ethyl)-phenyl]-oxazole-4-carboxylic acid [2-(5-acetyl-furan-2-ylmethyl)-2H-[1,2,3]triazol-4-yl]-amide]
98 | CC(=O)c1ccc(Cn2ncc(NC(=O)c3nc(C)sc3-c3cccc(C)c3)n2)o1 [Example 50, 2-Methyl-5-m-tolyl-thiazole-4-carboxylic acid [2-(5-acetyl-furan-2-ylmethyl)-2H-[1,2,3]triazol-4-yl]-amide]
